In general, GI50 refers to the concentration at which growth is held to half of that of the control. The TGI is the concentration at which net growth stops.

“And” between values parts separate entries of the source, which are not always exact repeats. Identical values can stand only once.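 Exposure lasted 48 hours, with cells grown in 96-well plates and compounds tested at five concentrations. GI50: concentration for 50% inhibition of growth. At the TGI there is no net growth.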

Some test systems named below: XF 498 CNS; SNB-78 CNS; DLD-1 colon; M19-MEL melanoma; DMS 273 small cell lung; HOP-18 NSCLC; MDA-MB-435; MDA-N.
What all share (assay): DTP human tumour cell line panel, 48 h

With `C[C@@]12CCC(=O)c3coc(c31)C(=O)c1cc3c(cc12)C(=O)C=CC3=O`, the GI50 with XF 498 CNS, in the test with SNB-78 CNS, with DLD-1 colon, in the test with M19-MEL melanoma, in the test with DMS 273 small cell lung and in the test with HOP-18 NSCLC was above 1 µM throughout. The TGI with XF 498 CNS was > 1 µM and 33.4 µM; with SNB-78 CNS, > 1 µM and 47.8 µM; with DLD-1 colon it was > 1 µM and 30.5 µM; with M19-MEL melanoma it was > 1 µM and 15.7 µM; in the test on DMS 273 small cell lung, > 1 µM and 30 µM; in the test on HOP-18 NSCLC, > 1 µM and 31.3 µM.

Consider `COC(=O)C1(Cc2ccc3c(c2)CCC3)Cc2ccccc2C1O` (centres undefined), for which the concentration for total growth inhibition (TGI) came out at 36.7 µM in the test with MDA-MB-435 and 13.5 µM in the test on MDA-N.

As for `O=C1C=CC(=O)C2=C1[C@@H](O)C1CC=CC3C(=O)O[C@@H]2C31` (some centres undefined), the total growth inhibition concentration (TGI) in the test with XF 498 CNS is 42.1 µM; in the test on SNB-78 CNS, above 62.3 µM; in the test on DLD-1 colon it was 37.9 µM; with M19-MEL melanoma, above 58.3 µM; in the test with DMS 273 small cell lung, 49.4 µM; in the test on HOP-18 NSCLC, above 62 µM.

With `CSC1=C(N)C(=O)c2[nH]cc(CO)c2C1=N`, in the test on MDA-MB-435, the GI50 is 0.0473 µM and the TGI was 0.165 µM.

Consider `COc1cc2c(cc1OC)[C@H](C)N1CCc3cc(OC)c(OC)cc3[C@@H]1C2`, for which the TGI with MDA-MB-435 and in the test with MDA-N was above 100 µM each time.

For `COc1ccc(C/C(C)=C(/c2ccc(OCCN3CCCCC3)cc2)c2ccc(OC(=O)NCc3ccccc3)cc2)cc1`, in the test with MDA-MB-435, the 50% growth inhibitory concentration (GI50) was 0.393 µM and the TGI turned out to be 0.736 µM.

With `CCOC(=O)CC[C@H](NC(=O)c1nc[nH]c1[N+](=O)[O-])C(=O)OCC`, the TGI in the test with SNB-78 CNS, in the test on DLD-1 colon, in the test with DMS 273 small cell lung and in the test with HOP-18 NSCLC was above 100 µM throughout.

Regarding `COc1cccc(-c2c[nH]c3c(N/N=C/c4ccncc4)ncnc23)c1`, in the test on MDA-MB-435, the GI50 is 1.83 µM and the TGI was found to be 6.9 µM.

For `COc1ccc2c(c1)NC1=C(C(=O)OC1)C2c1cc(OC)c2c(c1)OCO2` (centres undefined), in the test with MDA-MB-435, the 50% growth inhibitory concentration (GI50) was below 0.0123 µM and the concentration for total growth inhibition (TGI) was found to be 0.0322 µM.

In the case of `Cc1cc2c(cc1Cl)SC1=NN(C)C(C)N1S2(=O)=O` (centres undefined), in the test with MDA-MB-435, the GI50 is above 100 µM and the TGI is above 100 µM.

With `Cc1cccc(/C=N/NC(=S)N2CCCC2)n1`, the GI50 with MDA-MB-435 was 1.11 µM; in the test with MDA-N, 1.91 µM. Also, the TGI in the test with MDA-MB-435 was above 100 µM; in the test with MDA-N it was above 26.1 µM.

As to `CCCCCCCCCCCCCCCC(=O)OCC1OC(n2cc(F)c(=O)[nH]c2=O)C(N)C(O)C1O` (centres undefined), the total growth inhibition concentration (TGI) in the test on XF 498 CNS was 33.5 µM; in the test with DLD-1 colon, 37.1 µM; in the test with M19-MEL melanoma it was 33.6 µM; in the test on HOP-18 NSCLC it was 30.7 µM.

In the case of `Cc1cn(C2CC3C(COCN3O)O2)c(=O)[nH]c1=O` (centres undefined), the total growth inhibition concentration (TGI) in the test with XF 498 CNS, in the test with M19-MEL melanoma and with DMS 273 small cell lung was above 100 µM each time.

As to `Nc1ncnc2c1N=C(c1ccc3c(c1)OCO3)CC(c1ccc([N+](=O)[O-])cc1)N2` (centres undefined), in the test on MDA-MB-435, the GI50 was 62 µM and the TGI was above 100 µM.

With `O=C1NC(Nc2ccccc2)=NC(C(F)(F)F)(C(F)(F)F)N1`, the TGI in the test on MDA-MB-435 and in the test on MDA-N was above 100 µM each time.

Regarding `O=C1CCCCCCCCCCC1CN1CCCC1` (centres undefined), the total growth inhibition concentration (TGI) with MDA-MB-435 and with MDA-N was above 100 µM each time.

As to `Cn1ncnc1[C@H]1c2n[nH]c(=O)c3cc(F)cc(c23)N[C@@H]1c1ccc(F)cc1`, in the test on MDA-MB-435, the GI50 was above 100 µM and the TGI was above 100 µM.

On to `CC1=C(C(=O)Nc2ccc3n[nH]c(C)c3c2)C(c2ccc(C(F)(F)F)cc2)CC(=O)N1` (centres undefined), for which, in the test on MDA-MB-435, the GI50 is above 21 µM and the TGI is above 25 µM.

As to `C=CCN=C(N/N=C/c1ccc([N+](=O)[O-])o1)NS(=O)(=O)c1cc(C(=O)Nc2ccc(Cl)cc2)c(Cl)cc1SC`, in the test on MDA-MB-435, the GI50 was 2.88 µM and the concentration for total growth inhibition (TGI) was 7.05 µM.

Take `CC1=NN(C(=O)c2ccccc2O)C(=O)/C1=C/c1ccc(O)cc1`: the total growth inhibition concentration (TGI) in the test with SNB-78 CNS, in the test on DLD-1 colon and with MDA-N was above 100 µM throughout.

Turning to `O=C(Nc1ccc(Br)cc1F)c1cc(I)ccc1O`, in the test on MDA-MB-435, the GI50 was 3.04 µM and the TGI is 10.1 µM.

As to `CC[C@@]1(O)C(=O)OCc2c1cc1n(c2=O)Cc2cc3cc4c(cc3nc2-1)OCO4`, the figures for the GI50 with XF 498 CNS, in the test on DLD-1 colon and in the test with HOP-18 NSCLC were 0.114 µM, 0.112 µM and below 0.001 µM, respectively. In addition, the TGI was 0.461 µM and 0.657 µM in the test on XF 498 CNS; above 100 µM in the test on DLD-1 colon; 0.262 µM and 0.18 µM with M19-MEL melanoma; 0.195 µM in the test on DMS 273 small cell lung; 0.609 µM in the test with HOP-18 NSCLC.

Turning to `C[C@H]1CC[C@@]2(NC1)O[C@H]1C[C@H]3[C@@H]4CC[C@H]5C[C@@H](O)CC[C@]5(C)[C@H]4CC[C@]3(C)[C@H]1[C@@H]2C`, in the test on MDA-MB-435, the GI50 is 17.3 µM and the total growth inhibition concentration (TGI) came out at 50 µM. In the test with MDA-N, the concentration for total growth inhibition (TGI) was above 100 µM.

Consider `C[C@@H]1[C@H](C)N1CC(O)Cn1ccnc1[N+](=O)[O-]` (some centres undefined), for which the TGI in the test on MDA-MB-435 and with MDA-N was above 100 µM in each case.

For the compound `COc1cc(OC)c(C/C=C/c2ccccc2)cc1O`, the total growth inhibition concentration (TGI) in the test on MDA-MB-435 turned out to be 30.7 µM; with MDA-N, 38.8 µM.

As to `O=C1OCC2=C1C(c1cccc(Cl)c1)c1cc3c(cc1N2CCO)OCCO3` (centres undefined), in the test with MDA-MB-435, the 50% growth inhibitory concentration (GI50) was 0.0236 µM and the TGI came to 0.0626 µM.

As for `C=C1CC2OC(=O)C(=C)C2C(O)C2C(=C)CCC12` (centres undefined), the TGI amounted to 20.6 µM in the test with SNB-78 CNS; 30.9 µM in the test with DLD-1 colon; 20.1 µM in the test with M19-MEL melanoma; 22.2 µM in the test with DMS 273 small cell lung; 29.3 µM with HOP-18 NSCLC.

Turning to `NC(=O)N/N=C1/CCC(O)CC1CC(=O)O` (centres undefined), the TGI in the test on MDA-MB-435 and with MDA-N was above 100 µM in each case.

As for `CC(=O)N1CC(C)(C)c2c(C)c(O)c(C)c(C)c21`, the TGI in the test on MDA-MB-435 and in the test on MDA-N was above 100 µM in each case.

In the case of `COC1CC(O[C@H]2CC[C@@]3(C)[C@H](CC[C@@H]4[C@@H]3CC[C@]3(C)[C@@H](C5=CC(=O)OC5)[C@@H](OC(C)=O)C[C@]43O)C2)OC(C)C1O` (some centres undefined), in the test on MDA-MB-435, the 50% growth inhibitory concentration (GI50) was below 0.01 µM and the TGI is below 0.0109 µM.

As to `Cc1c(C(=O)Nc2ccccc2)sc2ncn(Cc3cccc(Cl)c3)c(=O)c12`, in the test with MDA-MB-435, the GI50 was 24.2 µM and the TGI was above 100 µM.

Source of the values: PubChem BioAssay (NCI).
